Data as given in paper PMC10584170, “Machine learning-based phenotypic imaging to characterise the targetable biology of Plasmodium falciparum male gametocytes for the development of transmission-blocking antimalarials” (PLOS Pathogens, 2023).
pIC50: −log10 of the molar value. Read-outs that look alike come from different tables or passages of the source.

Columns and labels:
[1] = test system: P. falciparum male gametocytes; assay: P. falciparum Dual Gamete Formation Assay (PfDGFA), male readout (exflagellation); assay type: cell-based, Plasmodium falciparum NF54; conditions: for Average inhibition male (%) / % inhibition male (individual replicates) R1 / % inhibition male (individual replicates) R3 / % inhibition male (individual replicates) R4 / inhibition at 2 µM: 24h preincubation with gametocytes; for Selectivity Ratio M: HepG2 Tox50 versus male IC50; for pIC50: PfDGFA, 24 h incubation with gametocytes before induction, exflagellation readout, read-out: Male IC50; for HitlevelM: number of replicates with >50% inhibition in the male readout
Method in brief: (§1)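 Read-outs are automated image counts of exflagellation centres (brightfield, 10 frames over 1 s) and Pfs25-positive female gametes (Cy3 fluorescence).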

HepG2 cells = assay: HepG2 cytotoxicity counter-screen; conditions: cytotoxic activity against HepG2 cells
[2] = test system: P. falciparum female gametocytes; assay: P. falciparum Dual Gamete Formation Assay (PfDGFA), female readout (Pfs25-positive female gametes); assay type: cell-based, Plasmodium falciparum NF54; conditions: for Average inhibition female (%) / % inhibition female (individual replicates) R1 / % inhibition female (individual replicates) R3 / % inhibition female (individual replicates) R4 / inhibition at 2 µM: 24h preincubation with gametocytes; for Selectivity ratio F: HepG2 Tox50 versus female IC50; for pIC50: PfDGFA, 24 h incubation with gametocytes before induction, female gamete readout, read-out: Female IC50; for HitlevelF: number of replicates with >50% inhibition in the female readout
Method in brief: as §1

[3] = PfDGFA at 2µM, average of replicates
[4] = Plasmodium falciparum, 2µM, average of replicates, read-out: Average inhibition male (%)
[5] = Plasmodium falciparum, 2µM, replicate R1, read-out: % inhibition male (individual replicates) R1
[6] = Plasmodium falciparum, 2µM, replicate R2, read-out: % inhibition male (individual replicates) R2
[7] = Plasmodium falciparum, 2µM, replicate R3, read-out: % inhibition male (individual replicates) R3
[8] = Plasmodium falciparum, 2µM, replicate R4, read-out: % inhibition male (individual replicates) R4
[9] = Plasmodium falciparum, 2µM, average of replicates, read-out: Average inhibition female (%)
[10] = Plasmodium falciparum, 2µM, replicate R1, read-out: % inhibition female (individual replicates) R1
[11] = Plasmodium falciparum, 2µM, replicate R2, read-out: % inhibition female (individual replicates) R2
[12] = Plasmodium falciparum, 2µM, replicate R3, read-out: % inhibition female (individual replicates) R3
[13] = Plasmodium falciparum, 2µM, replicate R4, read-out: % inhibition female (individual replicates) R4

| Compound | Average inhibition male (%) ([1]; 2µM, average of replicates) | % inhibition male (individual replicates) R1 ([1]; 2µM, replicate R1) [%] | % inhibition male (individual replicates) R3 ([1]; 2µM, replicate R3) [%] | % inhibition male (individual replicates) R4 ([1]; 2µM, replicate R4) [%] | Selectivity Ratio M [1] | pIC50 [1] | Tox50 (HepG2 cells) [µM] | Average inhibition female (%) ([2]; 2µM, average of replicates) | % inhibition female (individual replicates) R1 ([2]; 2µM, replicate R1) [%] | % inhibition female (individual replicates) R3 ([2]; 2µM, replicate R3) [%] | % inhibition female (individual replicates) R4 ([2]; 2µM, replicate R4) [%] | Selectivity ratio F [2] | pIC50 [2] | Average inhibition male (%) [1, 3] [%] | % inhibition male (individual replicates) R1 ([1]; PfDGFA at 2µM, replicate R1) [%] | % inhibition male (individual replicates) R3 ([1]; PfDGFA at 2µM, replicate R3) [%] | % inhibition male (individual replicates) R4 ([1]; PfDGFA at 2µM, replicate R4) [%] | HitlevelM ([1]; 2µM) | Average inhibition female (%) [2, 3] [%] | HitlevelF ([2]; 2µM) | also measured |
| --- | --- | --- | --- | --- | --- | --- | --- | --- | --- | --- | --- | --- | --- | --- | --- | --- | --- | --- | --- | --- | --- |
| FC(F)(F)c1ccc2[nH]c(-c3cccc(-c4cccc(CNCCN5CCNCC5)c4)c3)nc2c1.O=C(O)C(F)(F)F [TCMDC-132871] | 95.8 | 94.1 | 90.3 | 100.2 | 6.65 | 5.82 | 10.12 | 25.3 | 24.1 | 40.5 | 19.2 | 1.27 | 5.10 |  |  |  |  |  |  |  |  |
| FC(F)(F)c1ccc2[nH]c(-c3cccc(-c4ccc(CNCCN5CCNCC5)cc4)c3)nc2c1.O=C(O)C(F)(F)F [TCMDC-132872] |  |  |  |  | 9.17 | 5.80 | 14.49 |  |  |  |  | 2.18 | 5.18 | 72.1 | 71.0 | 37.9 | 97.6 | 3 | 30.3 | 0 | % inhibition female (individual replicates) R1 ([2]; PfDGFA at 2µM, replicate R1): 24.6%; % inhibition female (individual replicates) R3 ([2]; PfDGFA at 2µM, replicate R3): 21.1%; % inhibition female (individual replicates) R4 ([2]; PfDGFA at 2µM, replicate R4): 42.9% |
| COc1ccc(-c2cnc(N)c(-c3ccc(C(N)=O)cc3)c2)cc1OC [TCMDC-133349] |  |  |  |  | 54.05 |  | 15.14 |  |  |  |  | 1.51 |  |  |  |  |  | 3 |  | 0 | inhibition at 2 µM ([1]; Plasmodium falciparum, PfDGFA at 2µM, average of replicates, read-out: Average inhibition male (%)): 71.3%; inhibition at 2 µM ([1]; Plasmodium falciparum, PfDGFA at 2µM, replicate R1, read-out: % inhibition male (individual replicates) R1): 80.4%; inhibition at 2 µM ([1]; Plasmodium falciparum, PfDGFA at 2µM, replicate R2, read-out: % inhibition male (individual replicates) R2): 82.4%; inhibition at 2 µM ([1]; Plasmodium falciparum, PfDGFA at 2µM, replicate R4, read-out: % inhibition male (individual replicates) R4): 51.1%; pIC50 ([1]; Plasmodium falciparum): 6.55; inhibition at 2 µM ([2]; Plasmodium falciparum, PfDGFA at 2µM, average of replicates, read-out: Average inhibition female (%)): 9.1%; inhibition at 2 µM ([2]; Plasmodium falciparum, PfDGFA at 2µM, replicate R1, read-out: % inhibition female (individual replicates) R1): 0.18%; inhibition at 2 µM ([2]; Plasmodium falciparum, PfDGFA at 2µM, replicate R2, read-out: % inhibition female (individual replicates) R2): 11.3%; inhibition at 2 µM ([2]; Plasmodium falciparum, PfDGFA at 2µM, replicate R3, read-out: % inhibition female (individual replicates) R3): 7.9%; inhibition at 2 µM ([2]; Plasmodium falciparum, PfDGFA at 2µM, replicate R4, read-out: % inhibition female (individual replicates) R4): 17.1%; pIC50 ([2]; Plasmodium falciparum): < 5.00 |
| CNC(=O)c1ccccc1Nc1nc(Nc2ccc(CCN3CCN(C)CC3)cc2)ncc1Cl.Cl [TCMDC-133800] | 96.7 | 94.6 | 98.6 | 96.9 | 5.19 | 7.22 | 0.33 | 7.2 | 6.8 | -10.4 | 12.4 | 0.03 |  |  |  |  |  |  |  |  |  |
| CNC(=O)c1ccccc1Nc1nc(Nc2cccc(CS(C)(=O)=O)c2)ncc1C.O=CO [TCMDC-133809] | 90.9 | 93.6 | 92.1 | 84.9 | 6.79 | 6.82 | 1.03 | -2.2 | -7.2 | 6.2 | -11.5 | 0.1 |  |  |  |  |  |  |  |  |  |
| CN1CCC(N2CCN(Cc3cccc(-c4ccc(-c5nc6cc(C(F)(F)F)ccc6[nH]5)cc4)c3)CC2)CC1.O=C(O)C(F)(F)F [TCMDC-133842] |  |  |  |  | 3.46 | 5.81 | 5.34 |  |  |  |  | 1.63 | 5.49 | 86.6 | 86.4 | 71.8 | 92.9 | 4 | 30.2 | 1 | % inhibition female (individual replicates) R1 ([2]; PfDGFA at 2µM, replicate R1): 16.8%; % inhibition female (individual replicates) R3 ([2]; PfDGFA at 2µM, replicate R3): 18.6%; % inhibition female (individual replicates) R4 ([2]; PfDGFA at 2µM, replicate R4): 31.1% |
| Fc1ccc2[nH]c(-c3ccc(-c4ccc(CN5CCC(CCN6CCCCC6)CC5)cc4)s3)nc2c1.O=C(O)C(F)(F)F [TCMDC-133932] |  |  |  |  | 3.55 | 5.87 | 4.83 |  |  |  |  | 1.07 | 5.35 | 85.6 | 90.7 | 68.9 | 86.9 | 4 | 38.7 | 1 | % inhibition female (individual replicates) R1 ([2]; PfDGFA at 2µM, replicate R1): 37.3%; % inhibition female (individual replicates) R3 ([2]; PfDGFA at 2µM, replicate R3): 32.0%; % inhibition female (individual replicates) R4 ([2]; PfDGFA at 2µM, replicate R4): 25.9% |
| Cl.NC(=O)c1ccccc1Nc1nc(Nc2cccc(N3CCN(CCO)CC3)c2)ncc1Cl [TCMDC-134114] |  |  |  |  | 28.08 |  | 13.07 |  |  |  |  | 1.31 |  |  |  |  |  |  |  |  | inhibition at 2 µM [1, 4]: 96.1%; inhibition at 2 µM [1, 5]: 97.9%; inhibition at 2 µM [1, 6]: 97.4%; inhibition at 2 µM [1, 7]: 96.2%; inhibition at 2 µM [1, 8]: 92.9%; pIC50 ([1]; Plasmodium falciparum): 6.33; inhibition at 2 µM [2, 9]: 4.2%; inhibition at 2 µM [2, 10]: 11.2%; inhibition at 2 µM [2, 11]: 7.4%; inhibition at 2 µM [2, 12]: -5%; inhibition at 2 µM [2, 13]: 3.4%; pIC50 ([2]; Plasmodium falciparum): < 5.00 |
| Cc1cc(Nc2ncc(C#N)c(Nc3ccccc3C(N)=O)n2)ccc1N1CCN(C)CC1.Cl [TCMDC-134115] |  |  |  |  | 28.49 |  | 1.03 |  |  |  |  | 0.14 |  |  |  |  |  |  |  |  | inhibition at 2 µM [1, 4]: 96.2%; inhibition at 2 µM [1, 5]: 97.3%; inhibition at 2 µM [1, 6]: 97.1%; inhibition at 2 µM [1, 7]: 88.6%; inhibition at 2 µM [1, 8]: 102%; pIC50 ([1]; Plasmodium falciparum): 7.40; inhibition at 2 µM [2, 9]: -14.3%; inhibition at 2 µM [2, 10]: -7.3%; inhibition at 2 µM [2, 11]: -13.1%; inhibition at 2 µM [2, 12]: -26.9%; inhibition at 2 µM [2, 13]: -10%; pIC50 ([2]; Plasmodium falciparum): 5.13 |
